# Test results taken from patent publication US9999622B2, “Pyrazolothiazole compound and medicine comprising same” (NIPPON SHINYAKU CO., LTD., priority 2014, dated 2018).
# Key:
# Format in all cases: biochemical
# [1] = biological target: T1, JAK2 (Homo sapiens, UniProt O60674); test: JAK tyrosine kinase inhibitory activity in the presence of 1 mM ATP (ELISA), JAK2
# T1 construct: purchased Carna Biosciences, Inc
# Summary of the method: (§1)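 Recombinant kinase (7.5 nM JAK1; 0.75 nM JAK2, JAK3 working dilutions) reacted 1 h at 30 °C with 1 mM ATP in Tris-HCl pH 7.5, Tween-20, DTT, on streptavidin plates. Phosphotyrosine detected by HRP anti-pTyr antibody ELISA, TMB absorbance at 450 nm; duplicate wells, DMSO as negative control.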
# [2] = biological target: T2, JAK1 (Homo sapiens, UniProt P23458); test: JAK tyrosine kinase inhibitory activity in the presence of 1 mM ATP (ELISA), JAK1
# T2 construct: purchased Carna Biosciences, Inc
# Summary of the method: as §1
# [3] = biological target: T3, JAK3 (Homo sapiens, UniProt P52333); test: JAK tyrosine kinase inhibitory activity in the presence of 1 mM ATP (ELISA), JAK3
# T3 construct: purchased Carna Biosciences, Inc
# T3 sequence (P52333 1-1124): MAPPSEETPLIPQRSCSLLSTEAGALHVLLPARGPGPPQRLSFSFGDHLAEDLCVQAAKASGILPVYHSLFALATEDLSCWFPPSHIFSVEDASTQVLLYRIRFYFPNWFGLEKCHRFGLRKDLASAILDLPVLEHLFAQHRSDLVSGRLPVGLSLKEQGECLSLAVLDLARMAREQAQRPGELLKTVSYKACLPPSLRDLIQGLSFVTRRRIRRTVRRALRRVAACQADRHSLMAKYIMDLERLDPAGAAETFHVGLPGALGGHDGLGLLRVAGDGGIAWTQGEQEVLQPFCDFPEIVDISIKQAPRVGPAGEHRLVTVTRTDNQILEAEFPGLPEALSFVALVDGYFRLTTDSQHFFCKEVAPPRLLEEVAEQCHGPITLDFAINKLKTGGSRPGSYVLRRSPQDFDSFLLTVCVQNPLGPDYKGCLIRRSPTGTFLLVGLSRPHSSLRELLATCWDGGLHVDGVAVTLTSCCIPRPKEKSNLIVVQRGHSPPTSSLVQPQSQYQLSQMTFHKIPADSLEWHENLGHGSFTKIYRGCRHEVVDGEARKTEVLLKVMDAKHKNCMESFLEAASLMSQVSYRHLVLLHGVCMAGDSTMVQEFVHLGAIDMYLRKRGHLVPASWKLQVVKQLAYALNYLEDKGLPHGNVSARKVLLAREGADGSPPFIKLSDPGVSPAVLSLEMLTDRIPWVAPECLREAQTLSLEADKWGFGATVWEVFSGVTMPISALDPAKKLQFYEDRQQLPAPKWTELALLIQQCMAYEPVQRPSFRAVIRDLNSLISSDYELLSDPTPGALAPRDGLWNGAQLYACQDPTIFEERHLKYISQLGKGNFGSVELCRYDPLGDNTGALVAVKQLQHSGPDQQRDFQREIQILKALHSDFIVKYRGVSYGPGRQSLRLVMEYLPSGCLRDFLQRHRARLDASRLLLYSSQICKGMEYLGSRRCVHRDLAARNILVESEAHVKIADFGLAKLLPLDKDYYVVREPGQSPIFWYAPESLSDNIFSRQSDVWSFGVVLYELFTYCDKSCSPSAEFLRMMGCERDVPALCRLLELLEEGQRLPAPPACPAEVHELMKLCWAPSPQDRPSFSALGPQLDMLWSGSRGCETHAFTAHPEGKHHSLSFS
# Summary of the method: as §1
# T2 sequence (P23458 whole entry): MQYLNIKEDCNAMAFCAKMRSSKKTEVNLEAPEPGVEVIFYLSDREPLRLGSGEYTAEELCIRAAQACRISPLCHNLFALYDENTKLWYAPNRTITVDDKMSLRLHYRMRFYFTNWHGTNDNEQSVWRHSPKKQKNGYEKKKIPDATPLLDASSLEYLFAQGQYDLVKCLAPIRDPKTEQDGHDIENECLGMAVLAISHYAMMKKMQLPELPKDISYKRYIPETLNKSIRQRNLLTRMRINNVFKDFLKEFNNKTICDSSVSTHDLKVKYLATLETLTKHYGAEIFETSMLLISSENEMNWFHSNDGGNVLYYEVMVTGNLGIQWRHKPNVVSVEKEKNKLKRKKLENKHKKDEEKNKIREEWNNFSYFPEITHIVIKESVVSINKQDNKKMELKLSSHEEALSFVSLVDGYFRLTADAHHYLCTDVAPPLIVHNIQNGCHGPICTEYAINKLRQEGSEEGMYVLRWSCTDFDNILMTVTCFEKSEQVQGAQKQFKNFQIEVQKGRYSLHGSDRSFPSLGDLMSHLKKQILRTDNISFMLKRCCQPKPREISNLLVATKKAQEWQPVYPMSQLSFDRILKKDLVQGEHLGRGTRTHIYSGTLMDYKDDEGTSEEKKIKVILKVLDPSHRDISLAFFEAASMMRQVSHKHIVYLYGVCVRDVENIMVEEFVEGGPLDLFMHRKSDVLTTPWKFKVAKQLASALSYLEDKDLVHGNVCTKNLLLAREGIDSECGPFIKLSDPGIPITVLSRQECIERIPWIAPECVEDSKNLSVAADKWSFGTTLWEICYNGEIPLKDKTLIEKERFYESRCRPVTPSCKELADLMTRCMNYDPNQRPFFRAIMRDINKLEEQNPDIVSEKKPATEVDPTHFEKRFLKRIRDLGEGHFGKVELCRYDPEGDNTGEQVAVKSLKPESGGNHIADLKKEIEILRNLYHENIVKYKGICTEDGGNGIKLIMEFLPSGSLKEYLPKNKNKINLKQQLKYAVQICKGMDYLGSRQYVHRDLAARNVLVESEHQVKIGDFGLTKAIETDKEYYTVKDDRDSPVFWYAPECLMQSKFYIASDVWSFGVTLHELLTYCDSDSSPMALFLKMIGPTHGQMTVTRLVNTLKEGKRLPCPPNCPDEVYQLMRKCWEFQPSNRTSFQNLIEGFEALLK
# T1 sequence (O60674 whole entry): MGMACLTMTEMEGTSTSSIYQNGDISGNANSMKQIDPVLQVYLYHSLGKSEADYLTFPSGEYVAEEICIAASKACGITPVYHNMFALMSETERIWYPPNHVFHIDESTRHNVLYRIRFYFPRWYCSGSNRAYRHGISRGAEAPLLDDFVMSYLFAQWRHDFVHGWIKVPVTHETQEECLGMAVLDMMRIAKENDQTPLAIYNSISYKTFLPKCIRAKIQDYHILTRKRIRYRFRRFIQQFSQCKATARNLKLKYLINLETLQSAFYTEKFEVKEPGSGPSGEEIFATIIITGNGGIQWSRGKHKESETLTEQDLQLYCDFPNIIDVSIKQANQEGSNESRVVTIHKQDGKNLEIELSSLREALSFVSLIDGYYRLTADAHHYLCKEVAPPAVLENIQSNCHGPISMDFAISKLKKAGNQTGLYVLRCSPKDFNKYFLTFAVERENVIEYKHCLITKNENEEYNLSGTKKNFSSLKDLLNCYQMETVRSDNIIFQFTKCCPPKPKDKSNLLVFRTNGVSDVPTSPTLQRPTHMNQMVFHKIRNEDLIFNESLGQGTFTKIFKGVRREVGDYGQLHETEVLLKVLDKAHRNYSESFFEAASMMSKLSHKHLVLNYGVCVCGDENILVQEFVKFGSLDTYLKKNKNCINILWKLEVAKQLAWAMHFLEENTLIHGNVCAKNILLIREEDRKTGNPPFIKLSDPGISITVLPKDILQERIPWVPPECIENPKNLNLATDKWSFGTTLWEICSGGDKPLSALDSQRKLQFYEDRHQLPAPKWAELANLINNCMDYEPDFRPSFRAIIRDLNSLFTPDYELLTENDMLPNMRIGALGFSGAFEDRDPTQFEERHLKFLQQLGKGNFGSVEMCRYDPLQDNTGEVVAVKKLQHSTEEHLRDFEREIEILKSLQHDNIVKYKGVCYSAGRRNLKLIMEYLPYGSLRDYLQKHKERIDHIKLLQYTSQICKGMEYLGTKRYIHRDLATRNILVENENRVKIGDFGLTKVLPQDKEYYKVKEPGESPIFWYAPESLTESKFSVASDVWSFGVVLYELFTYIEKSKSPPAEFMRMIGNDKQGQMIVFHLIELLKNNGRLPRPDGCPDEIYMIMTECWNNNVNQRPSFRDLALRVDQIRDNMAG
SMILES,IC50 [1] [nM],IC50 [2] [nM],IC50 [3] [nM]
"N#CCC(=O)N1CC[C@H](Nc2cc(C(=O)N3CCC(NC(=O)C4CC4)CC3)nc(-c3cnn4ccsc34)n2)C1 [Example 204, N-1-[6-[(3S)-1-(cyanoacetyl)pyrrolidin-3-yl]amino-2-(pyrazolo[5,1-b][1,3]thiazol-7-yl)pyrimidine-4-carbonyl]piperidin-4-ylcyclopropanecarboxamide]",> 10000,2700,> 10000
"COC(=O)NC1CCN(C(=O)c2cc(N[C@@H]3CCN(C(=O)C4CC4)C3)nc(-c3cnn4ccsc34)n2)CC1 [Example 205, Methyl 1-[6-[(3R)-1-(cyclopropanecarbonyl)pyrrolidin-3-yl]amino-2-(pyrazolo[5,1-b][1,3]thiazol-7-yl)pyrimidine-4-carbonyl]piperidin-4-ylcarbamate]",> 10000,850,> 10000
"COC(=O)NC1CCN(C(=O)c2cc(N[C@@H]3CCN(C(=O)C4CCC4)C3)nc(-c3cnn4ccsc34)n2)CC1 [Example 206, Methyl 1-[6-[(3R)-1-(cyclobutanecarbonyl)pyrrolidin-3-yl]amino-2-(pyrazolo[5,1-b][1,3]thiazol-7-yl)pyrimidine-4-carbonyl]piperidin-4-ylcarbamate]",> 10000,940,> 10000
"CCCC(=O)N1CC[C@@H](Nc2cc(C(=O)N3CCC(NC(=O)OC)CC3)nc(-c3cnn4ccsc34)n2)C1 [Example 207, Methyl 1-[6-[(3R)-1-butanoylpyrrolidin-3-yl]amino-2-(pyrazolo[5,1-b][1,3]thiazol-7-yl)pyrimidine-4-carbonyl]piperidin-4-ylcarbamate]",> 10000,410,> 10000

# Results, then the compound that gave them:
IC50 [1] [nM],IC50 [2] [nM],IC50 [3] [nM],SMILES
> 10000,2400,> 10000,"COC(=O)NC1CCN(C(=O)c2cc(NC3CCN(S(C)(=O)=O)CC3)nc(-c3cnn4ccsc34)n2)CC1 [Example 200, Methyl 1-[6-[1-(methanesulfonyl)piperidin-4-yl]amino-2-(pyrazolo[5,1-b][1,3]thiazol-7-yl)pyrimidine-4-carbonyl]piperidin-4-ylcarbamate]"
> 10000,120,> 10000,"COC(=O)NC1CCN(C(=O)c2cc(N[C@@H]3CCN(C(=O)CC#N)C3)nc(-c3cnn4ccsc34)n2)CC1 [Example 201, Methyl 1-[6-[(3R)-1-(cyanoacetyl)pyrrolidin-3-yl]amino-2-(pyrazolo[5,1-b][1,3]thiazol-7-yl)pyrimidine-4-carbonyl]piperidin-4-ylcarbamate]"
> 10000,300,> 10000,"CCC(=O)NC1CCN(C(=O)c2cc(N[C@@H]3CCN(C(=O)CC#N)C3)nc(-c3cnn4ccsc34)n2)CC1 [Example 202, N-1-[6-[(3R)-1-(cyanoacetyl)pyrrolidin-3-yl]amino-2-(pyrazolo[5,1-b][1,3]thiazol-7-yl)pyrimidine-4-carbonyl]piperidin-4-ylpropanamide]"
> 10000,70,> 10000,"CCOC(=O)NC1CCN(C(=O)c2cc(N[C@@H]3CCN(C(=O)CC#N)C3)nc(-c3cnn4ccsc34)n2)CC1 [Example 203, Ethyl 1-[6-[(3R)-1-(cyanoacetyl)pyrrolidin-3-yl]amino-2-(pyrazolo[5,1-b][1,3]thiazol-7-yl)pyrimidine-4-carbonyl]piperidin-4-ylcarbamate]"
